{
  "source": "patent US4696920A",
  "about": "“Certain 2-substituted 1,3-propylidenediphosphonate derivatives, pharmaceutical compositions containing them and their use as antihypertensive agents” (priority 1984, dated 1987)",
  "key": {"[1]": {"tested_on": "rat trachea contraction induced by KCl depolarization", "assay": "KCl-induced rat trachea contraction", "parameters": "species or system rat (male SHR, Okamoto-Aoki)", "conditions": "for activity at 1 µM: Rattus norvegicus, 40 min, read-out: Contraction (% max.); for activity on KCl-induced trachea contraction (in words): final concentration 1.0 μM", "how_it_was_run": "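Spiral trachea strips from male SHR rats were held in Krebs-Ringer (pH 7.4, 95/5 O2/CO2, 37±1° C) under 1.5–2 g tension, and contraction was measured isometrically. After a 65 mM KCl plateau, drugs (1.0 μM final) were added. Residual contraction at 40 min was expressed as % of the initial KCl response.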"}, "[2]": {"tested_on": "calcium channel binding site for [^3 H]-Nitrendipine (rat brain membranes)", "assay": "[^3 H]-Nitrendipine binding to rat brain membranes", "parameters": "species or system rat (male Wistar)", "conditions": "Table 1a; for Specifically bound [^3 H]-Nitrendipine % of control value: compound concentration 1.0 μM; for Bound ^3 H at 1.0 μM / Bound ^3 H at 0.1 μM: ratio of [^3 H]-Nitrendipine bound at 1.0 and 0.1 μM compound", "how_it_was_run": "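Cerebral cortex membranes from male Wistar rats (400 μg protein/tube) were incubated with [3H]-nitrendipine and compounds in 50 mM Tris-HCl pH 7.4/150 mM NaCl/1 mM CaCl2 under subdued light, ethanol ≤0.1%. Bound radioligand was collected by GF/B filtration and counted; data are percent specific binding versus control, with compounds judged at 1.0 μM final.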"}, "[3]": {"tested_on": "isolated rat atrium (atrium rate)", "assay": "Chronotropic activity in isolated rat atrium", "parameters": "species or system rat (male SHR, Okamoto-Aoki)", "conditions": "5.0 × 10^-6 M, mean ± SEM, read-out: Decrease in atrium rate (% pretest)", "protocol": "Spontaneously hypertensive male rats (SHR) (Okamoto-Aoki strain) were anesthetized with Pentobarbital (Nembutal Abbott, 60 mg/kg, i.p.). The hearts were quickly excised and both atria were dissected free from adjacent cardiac tissues. The atria were immediatly placed in a 50 ml Krebs-Ringer bath with the following composition (mM): NaCl, (120.0); KCl, (5.63); CaCl2, (2.0); MgCl2, (2.10); NaHCO3, (25.0); Glucose, (9.7) (pH 7.4). The solution was continuously bubbled with a O2 /CO2 mixture (95/5) and maintained at 37±1° C. The atrium was fixed to an optical displacement transducer (IITC, USA) under a resting tension of 1 g in order to measure atrial rate. The preparation was allowed to equilibrate for 40 min then cumulative dose-response curves were determined for each test compound (0.5-5 μMole/l). Maximum effect was normally obtained within 30-40 min. for each concentration.\nStock solutions of the 1,3-diphosphonates were generally prepared in 0.9% saline and water insoluble compounds were prepared in 50% ethanol. […] When tested at the concentration of 5.0×10^-6 M a decrease in atrium rate of more than 5% was considered as significant.\nAll data are presented as % decrease of initial atrium rate (mean values±SEM). A potent negative chronotropic effect was found with all compounds tested (table 3)."}, "[4]": {"tested_on": "mean blood pressure in rat", "assay": "Acute intravenous hypotensive activity in anesthetized rats", "type": "in vivo, rat (male Wistar)", "conditions": "for hypotensive activity (in words): acute i.v., Table 4", "protocol": "Male Wistar rats were anesthetized with Pentobarbital (Nembutal, 60 mg/kg i.p.) and heparinized (5 mg/kg i.p.). After tracheotomy the right carotid was cannulated (catheter PE 50); blood pressure was measured with a pressure transducer (Statham P 23 db) and recorded on a polygraph (Beckman).\nAnimals received 0.5 and 1.5 mg/kg of the test compounds. Less than 100 μl of test compounds dissolved in 0.9% saline were injected in the jugular vein. Highly water insoluble compounds were suspended in 2% Tween-80. Injection of the vehicle alone had no detectable hypotensive effect.\nResults presented are expressed as percent decrease in initial mean blood pressure (Mean±SEM)."}, "[5]": {"tested_on": "drug receptor sites associated with calcium channels", "conditions": "known calcium antagonists; cited from earlier work"}, "[6]": {"tested_on": "slow inward current of the action potential", "conditions": "classical calcium antagonists; cited from earlier work"}, "[7]": {"conditions": "Rattus norvegicus, iv, read-out: Decrease in mean blood pressure (% pretest)"}},
  "note": "“Also recorded” adds a separate entry of the source.",
  "data": [
    {"smiles": "CCCCOP(=O)(CC(Cc1ccccc1)CP(=O)(OCCCC)OCCCC)OCCCC", "note": "[Compound 73, Tetrabutyl 2-benzyl-1,3-propylidenediphosphonate]", "values": [
      {"measurement": "activity at 1 µM", "setting": "[1]", "result": "46.2 ± 1.8", "unit": "%"},
      {"measurement": "activity on KCl-induced trachea contraction (in words)", "setting": "[1]", "result": "potent pharmacological activity"},
      {"measurement": "modulation of [^3 H]-Nitrendipine binding (in words)", "setting": "[2]", "result": "strong inhibitors"},
      {"measurement": "Specifically bound [^3 H]-Nitrendipine % of control value", "setting": "[2]", "result": "81 % of control value"},
      {"measurement": "Bound ^3 H at 1.0 μM / Bound ^3 H at 0.1 μM", "setting": "[2]", "result": 0.862},
      {"measurement": "inhibition at 5 µM", "setting": "[3]", "result": "18.8 ± 11.2", "unit": "%"},
      {"measurement": "inhibition in vivo at 0.5 mg/kg", "setting": "[4]; [7]", "result": "50 ± 3.8", "unit": "%"},
      {"measurement": "hypotensive activity (in words)", "setting": "[4]", "result": "hypotensive activity superior to that of classical hypotensive drugs and of the calcium antagonists used as references"}
    ]},
    {"smiles": "CCCCOP(=O)(CC(CCc1ccccc1)CP(=O)(OCCCC)OCCCC)OCCCC", "note": "[Compound 74]", "values": [
      {"measurement": "activity at 1 µM", "setting": "[1]", "result": "35 ± 1.2", "unit": "%"},
      {"measurement": "activity on KCl-induced trachea contraction (in words)", "setting": "[1]", "result": "potent pharmacological activity"},
      {"measurement": "Specifically bound [^3 H]-Nitrendipine % of control value", "setting": "[2]", "result": "17 % of control value"},
      {"measurement": "Bound ^3 H at 1.0 μM / Bound ^3 H at 0.1 μM", "setting": "[2]", "result": 0.380},
      {"measurement": "inhibition at 5 µM", "setting": "[3]", "result": "8.3 ± 4.5", "unit": "%"},
      {"measurement": "inhibition in vivo at 0.5 mg/kg", "setting": "[4]; [7]", "result": "50.8 ± 2.7", "unit": "%"},
      {"measurement": "hypotensive activity (in words)", "setting": "[4]", "result": "hypotensive activity superior to that of classical hypotensive drugs and of the calcium antagonists used as references"}
    ]},
    {"smiles": "CCCCOP(=O)(CC(CCCc1ccccc1)CP(=O)(OCCCC)OCCCC)OCCCC", "note": "[Compound 75, Tetrabutyl 2-(3-phenylpropyl)-1,3-propylidenediphosphonate]", "values": [
      {"measurement": "activity at 1 µM", "setting": "[1]", "result": "70 ± 3", "unit": "%"},
      {"measurement": "activity on KCl-induced trachea contraction (in words)", "setting": "[1]", "result": "potent pharmacological activity"},
      {"measurement": "modulation of [^3 H]-Nitrendipine binding (in words)", "setting": "[2]", "result": "strong inhibitors"},
      {"measurement": "Specifically bound [^3 H]-Nitrendipine % of control value", "setting": "[2]", "result": "22 % of control value"},
      {"measurement": "Bound ^3 H at 1.0 μM / Bound ^3 H at 0.1 μM", "setting": "[2]", "result": 0.354},
      {"measurement": "inhibition at 5 µM", "setting": "[3]", "result": "14.8 ± 4.8", "unit": "%"},
      {"measurement": "inhibition in vivo at 0.5 mg/kg", "setting": "[4]; [7]", "result": "22.8 ± 1.6", "unit": "%"}
    ]},
    {"smiles": "CCCCOP(=O)(CC(Cc1cccc2ccccc12)CP(=O)(OCCCC)OCCCC)OCCCC", "note": "[Compound 83]", "values": [
      {"measurement": "activity at 1 µM", "setting": "[1]", "result": "62.5 ± 11.5", "unit": "%"},
      {"measurement": "activity on KCl-induced trachea contraction (in words)", "setting": "[1]", "result": "potent pharmacological activity"},
      {"measurement": "modulation of [^3 H]-Nitrendipine binding (in words)", "setting": "[2]", "result": "strong inhibitors"},
      {"measurement": "Specifically bound [^3 H]-Nitrendipine % of control value", "setting": "[2]", "result": "36 % of control value"},
      {"measurement": "Bound ^3 H at 1.0 μM / Bound ^3 H at 0.1 μM", "setting": "[2]", "result": 0.548},
      {"measurement": "inhibition at 5 µM", "setting": "[3]", "result": "4.4 ± 0.6", "unit": "%"},
      {"measurement": "inhibition in vivo at 0.5 mg/kg", "setting": "[4]; [7]", "result": "10.6 ± 0.5", "unit": "%"}
    ]},
    {"smiles": "COc1ccc([C@@H]2Sc3ccccc3N(CCN(C)C)C(=O)[C@@H]2OC(C)=O)cc1", "note": "[Diltiazem]", "values": [
      {"measurement": "effect on [^3 H]-Nitrendipine binding (in words)", "setting": "[5]", "result": "stimulators; also recorded: enhances [^3 H]Nitrendipine binding"},
      {"measurement": "inhibition of slow inward current (in words)", "setting": "[6]", "result": "inhibit with very high specificity the slow inward current of the action potential"},
      {"measurement": "inhibition in vivo at 1 mg/kg", "setting": "[4]; Rattus norvegicus, iv, 1.0 mg/kg, known hypotensive drugs, mean ± SEM, read-out: Decrease in mean blood pressure (% pretest)", "result": 47.9, "unit": "%"}
    ]},
    {"smiles": "COC(=O)C1=C(C)NC(C)=C(C(=O)OC)C1c1ccccc1[N+](=O)[O-]", "note": "[Nifedipine]", "values": [
      {"measurement": "inhibition of slow inward current (in words)", "setting": "[6]", "result": "inhibit with very high specificity the slow inward current of the action potential"}
    ]}
  ]
}
